Laboratory results published in patent US20140323300A1, “HERBICIDAL COMPOUNDS” (SYNGENTA LIMITED, priority 2011, published 2014).

Legend:
Assay type in all cases: in vivo
[1] = tested on: Alopecurus myosuroides (ALOMY); assay: Post-emergence glasshouse herbicide test; conditions: post-emergence (sprayed after 8 days cultivation), 1000 g/h, evaluated after 13 days, five point scale
Method: (§1) Seeds of a variety of test species are sown in standard soil in pots (Alopecurus myosuroides (ALOMY), Setaria faberi (SETFA), Echinochloa crus-galli (ECHCG), Solanum nigrum (SOLNI), Amaranthus retoflexus (AMARE), Ipomoea hederacea (IPOHE)). After cultivation for one day (pre-emergence) or after 8 days cultivation (post-emergence) under controlled conditions in a glasshouse (at 24/16° C., day/night; 14 hours light; 65% humidity), the plants are sprayed with an aqueous spray solution derived from the formulation of the technical active ingredient in acetone/water (50:50) solution containing 0.5% Tween 20 (polyoxyethelyene sorbitan monolaurate, CAS RN 9005-64-5). Compounds are applied at 1000 g/h. The test plants are then grown in a glasshouse under controlled conditions in a glasshouse (at 24/16° C., day/night; 14 hours light; 65% humidity) and watered twice daily. After 13 days for pre and post-emergence, the test is evaluated for the percentage damage caused to the plant. The biological activities are shown in the following table on a five point scale (5=80-100%; 4=60-79%; 3=40-59%; 2=20-39%; 1=0-19%).

[2] = tested on: Amaranthus retoflexus (AMARE); assay: Post-emergence glasshouse herbicide test; conditions: post-emergence (sprayed after 8 days cultivation), 1000 g/h, evaluated after 13 days, five point scale
Method: as §1

[3] = tested on: Echinochloa crus-galli (ECHCG); assay: Post-emergence glasshouse herbicide test; conditions: post-emergence (sprayed after 8 days cultivation), 1000 g/h, evaluated after 13 days, five point scale
Method: as §1

[4] = tested on: Ipomoea hederacea (IPOHE); assay: Post-emergence glasshouse herbicide test; conditions: post-emergence (sprayed after 8 days cultivation), 1000 g/h, evaluated after 13 days, five point scale
Method: as §1

[5] = tested on: Setaria faberi (SETFA); assay: Post-emergence glasshouse herbicide test; conditions: post-emergence (sprayed after 8 days cultivation), 1000 g/h, evaluated after 13 days, five point scale
Method: as §1

[6] = tested on: Solanum nigrum (SOLNI); assay: Post-emergence glasshouse herbicide test; conditions: post-emergence (sprayed after 8 days cultivation), 1000 g/h, evaluated after 13 days, five point scale
Method: as §1

[7] = tested on: Alopecurus myosuroides (ALOMY); assay: Pre-emergence glasshouse herbicide test; conditions: pre-emergence (sprayed after one day cultivation), 1000 g/h, evaluated after 13 days, five point scale
Method: as §1

[8] = tested on: Amaranthus retoflexus (AMARE); assay: Pre-emergence glasshouse herbicide test; conditions: pre-emergence (sprayed after one day cultivation), 1000 g/h, evaluated after 13 days, five point scale
Method: as §1

[9] = tested on: Echinochloa crus-galli (ECHCG); assay: Pre-emergence glasshouse herbicide test; conditions: pre-emergence (sprayed after one day cultivation), 1000 g/h, evaluated after 13 days, five point scale
Method: as §1

[10] = tested on: Ipomoea hederacea (IPOHE); assay: Pre-emergence glasshouse herbicide test; conditions: pre-emergence (sprayed after one day cultivation), 1000 g/h, evaluated after 13 days, five point scale
Method: as §1

[11] = tested on: Setaria faberi (SETFA); assay: Pre-emergence glasshouse herbicide test; conditions: pre-emergence (sprayed after one day cultivation), 1000 g/h, evaluated after 13 days, five point scale
Method: as §1

[12] = tested on: Solanum nigrum (SOLNI); assay: Pre-emergence glasshouse herbicide test; conditions: pre-emergence (sprayed after one day cultivation), 1000 g/h, evaluated after 13 days, five point scale
Method: as §1

SMILES	percentage damage caused to the plant, POST Application ALOMY [1]	percentage damage caused to the plant, POST Application AMARE [2]	percentage damage caused to the plant, POST Application ECHCG [3]	percentage damage caused to the plant, POST Application IPOHE [4]	percentage damage caused to the plant, POST Application SETFA [5]	percentage damage caused to the plant, POST Application SOLNI [6]	percentage damage caused to the plant, PRE Application ALOMY [7]	percentage damage caused to the plant, PRE Application AMARE [8]	percentage damage caused to the plant, PRE Application ECHCG [9]	percentage damage caused to the plant, PRE Application IPOHE [10]	percentage damage caused to the plant, PRE Application SETFA [11]	percentage damage caused to the plant, PRE Application SOLNI [12]
CCc1cnn(-c2ccc(C(F)(F)F)nc2C)c(=O)c1O [Compound 1.022]	4 (4=60-79%)	5 (5=80-100%)	5 (5=80-100%)	4 (4=60-79%)	4 (4=60-79%)	5 (5=80-100%)	4 (4=60-79%)	5 (5=80-100%)	5 (5=80-100%)	4 (4=60-79%)	4 (4=60-79%)	5 (5=80-100%)
C=Cc1cnn(-c2ccc(S(C)(=O)=O)c(C3=NOCC3)c2C)c(=O)c1O [Compound 1.006]	4 (4=60-79%)	5 (5=80-100%)	5 (5=80-100%)	5 (5=80-100%)	5 (5=80-100%)	5 (5=80-100%)	1 (1=0-19%)	5 (5=80-100%)	5 (5=80-100%)	4 (4=60-79%)	4 (4=60-79%)	5 (5=80-100%)
O=c1c(O)c(Cl)cnn1-c1ccc(Cl)cc1Cl [Compound 1.001]	1 (1=0-19%)	5 (5=80-100%)	5 (5=80-100%)	5 (5=80-100%)	5 (5=80-100%)	5 (5=80-100%)	2 (2=20-39%)	4 (4=60-79%)	4 (4=60-79%)	1 (1=0-19%)	4 (4=60-79%)	3 (3=40-59%)
CCc1cnn(-c2ccc(Cl)cc2S(C)(=O)=O)c(=O)c1O [Compound 1.037]	5 (5=80-100%)	5 (5=80-100%)	5 (5=80-100%)	4 (4=60-79%)	5 (5=80-100%)	5 (5=80-100%)	5 (5=80-100%)	5 (5=80-100%)	5 (5=80-100%)	4 (4=60-79%)	5 (5=80-100%)	5 (5=80-100%)
Cc1nc(C(F)(F)F)ccc1-n1ncc(Cl)c(O)c1=O [Compound 1.019]	5 (5=80-100%)	5 (5=80-100%)	5 (5=80-100%)	5 (5=80-100%)	5 (5=80-100%)	5 (5=80-100%)	5 (5=80-100%)	5 (5=80-100%)	5 (5=80-100%)	5 (5=80-100%)	5 (5=80-100%)	5 (5=80-100%)
C=Cc1cnn(-c2ccc(C(F)(F)F)nc2C)c(=O)c1O [Compound 1.021]	3 (3=40-59%)	5 (5=80-100%)	5 (5=80-100%)	5 (5=80-100%)	5 (5=80-100%)	5 (5=80-100%)	3 (3=40-59%)	5 (5=80-100%)	5 (5=80-100%)	5 (5=80-100%)	5 (5=80-100%)	5 (5=80-100%)
CCc1cnn(-c2ccc(C(F)(F)F)cc2S(C)(=O)=O)c(=O)c1O [Compound 1.045]	5 (5=80-100%)	5 (5=80-100%)	5 (5=80-100%)	5 (5=80-100%)	5 (5=80-100%)	5 (5=80-100%)	5 (5=80-100%)	5 (5=80-100%)	5 (5=80-100%)	5 (5=80-100%)	5 (5=80-100%)	5 (5=80-100%)
